# ChEMBL document CHEMBL1135341, “Analogue based design of MMP-13 (Collagenase-3) inhibitors” (Bioorg Med Chem Lett, 2002)
# Molecular target: Collagenase 3 (Homo sapiens, UniProt P45452)
# Assay: Inhibitory activity against recombinant human matrix metalloprotease-13
row,IC50 [nM],SMILES
1,87.1,COCCOCCC#CCC(NS(=O)(=O)c1ccc(-c2ccc(OC)cc2)cc1)C(=O)O (configuration not stated)
2,89.1,O=C(O)C(CC#Cc1ccccc1)NS(=O)(=O)c1ccc(C#Cc2ccccc2)cc1 (configuration not stated)
